Data from the supplement of paper PMC10307832.

How the values were obtained:
Assay in all cases: relative viability (nuclei count vs DMSO), 5 days (fraction); higher = more cells survive
FH535 + Bortezomib = compound: CC1=C(C=CC(=C1)[N+](=O)[O-])NS(=O)(=O)C2=C(C=CC(=C2)Cl)Cl [FH535] + CC(C)C[C@H](NC(=O)[C@H](Cc1ccccc1)NC(=O)c1cnccn1)B(O)O [Bortezomib] (partner 0.002 µM)
How it was run: (§1)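 Medians of duplicate plates are given as relative viability. That measure is the nuclei count in treated wells divided by the count in vehicle wells. Counts were taken on 4× images of lung cancer cell lines in 1536-well plates, 5 days after pin-tool dosing the day after seeding with one drug alone or a fixed anchor-drug dose plus five library-drug doses (not always all listed) in √10 steps.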

FH535 + Navitoclax = compound: CC1=C(C=CC(=C1)[N+](=O)[O-])NS(=O)(=O)C2=C(C=CC(=C2)Cl)Cl [FH535] + CC1(C)CCC(c2ccc(Cl)cc2)=C(CN2CCN(c3ccc(C(=O)NS(=O)(=O)c4ccc(N[C@H](CCN5CCOCC5)CSc5ccccc5)c(S(=O)(=O)C(F)(F)F)c4)cc3)CC2)C1 [Navitoclax] (partner 0.5 µM)
How it was run: as §1

FH535 + OSI-027 = compound: CC1=C(C=CC(=C1)[N+](=O)[O-])NS(=O)(=O)C2=C(C=CC(=C2)Cl)Cl [FH535] + COc1cccc2cc(-c3nc([C@H]4CC[C@H](C(=O)O)CC4)n4ncnc(N)c34)[nH]c12 [OSI-027] (partner 0.5 µM)
How it was run: as §1

FH535 + Lapatinib = compound: CC1=C(C=CC(=C1)[N+](=O)[O-])NS(=O)(=O)C2=C(C=CC(=C2)Cl)Cl [FH535] + CS(=O)(=O)CCNCc1ccc(-c2ccc3ncnc(Nc4ccc(OCc5cccc(F)c5)c(Cl)c4)c3c2)o1 [Lapatinib] (partner 2 µM)
How it was run: as §1

FH535 + Pictilisib = compound: CC1=C(C=CC(=C1)[N+](=O)[O-])NS(=O)(=O)C2=C(C=CC(=C2)Cl)Cl [FH535] + CS(=O)(=O)N1CCN(Cc2cc3nc(-c4cccc5[nH]ncc45)nc(N4CCOCC4)c3s2)CC1 [Pictilisib] (partner 1 µM)
How it was run: as §1

Row | Cell Line | relative viability (FH535 + Bortezomib; first compound 0.04 µM) | relative viability (FH535 + Bortezomib; first compound 0.1265 µM) | relative viability (FH535 + Bortezomib; first compound 0.4 µM) | relative viability (FH535 + Bortezomib; first compound 1.265 µM) | relative viability (FH535 + Navitoclax; first compound 0.1265 µM) | relative viability (FH535 + Navitoclax; first compound 0.4 µM) | relative viability (FH535 + Navitoclax; first compound 1.265 µM) | relative viability (FH535 + OSI-027; first compound 0.04 µM) | relative viability (FH535 + OSI-027; first compound 0.1265 µM) | relative viability (FH535 + OSI-027; first compound 0.4 µM) | relative viability (FH535 + OSI-027; first compound 1.265 µM) | relative viability (FH535 + Lapatinib; first compound 0.1265 µM) | relative viability (FH535 + Lapatinib; first compound 0.4 µM) | relative viability (FH535 + Lapatinib; first compound 1.265 µM) | relative viability (FH535 + Pictilisib; first compound 0.1265 µM) | relative viability (FH535 + Pictilisib; first compound 0.4 µM) | relative viability (FH535 + Pictilisib; first compound 1.265 µM) | relative viability (FH535 + Navitoclax; first compound 0.04 µM) | relative viability (FH535 + Lapatinib; first compound 0.04 µM) | relative viability (FH535 + Pictilisib; first compound 0.04 µM)
1 | LCLC-97TM1 | 0.705 | 0.545 | 0.561 | 0.273 | 0.446 | 0.392 | 0.304 | 0.431 | 0.49 | 0.441 | 0.395 | 0.766 | 0.837 | 0.833 | 0.124 | 0.176 | 0.206 |  |  | 
2 | NCI-H1993 | 1.01 | 0.927 | 0.895 | 0.811 | 1.01 | 0.838 | 0.695 | 0.556 | 0.522 | 0.531 | 0.617 | 0.781 | 0.729 | 0.714 | 0.747 | 0.769 | 0.709 | 0.946 | 0.676 | 0.679
3 | HARA | 1.03 | 0.987 | 1.11 | 0.73 | 1.17 | 1.15 | 0.931 | 0.41 | 0.441 | 0.418 | 0.427 | 0.802 | 0.8 | 0.73 | 0.665 | 0.368 | 0.458 | 1.14 | 0.743 | 0.429
4 | NCI-H520 | 0.304 | 0.239 | 0.522 | 0.601 | 1.09 | 1.06 | 0.882 | 0.199 | 0.286 | 0.296 | 0.192 | 0.768 | 0.818 | 0.761 | 0.201 | 0.303 | 0.279 | 1.11 | 0.848 | 0.274
5 | NCI-H1650 | 0.198 | 0.195 | 0.184 | 0.2 | 1.27 | 1.17 | 0.856 | 0.558 | 0.591 | 0.456 | 0.523 | 0.73 | 0.74 | 0.784 | 0.56 | 0.545 | 0.594 | 1.17 | 0.642 | 0.503
6 | EKVX | 1.04 | 0.762 | 1 | 0.704 | 0.849 | 0.924 | 0.789 | 0.676 | 0.778 | 0.618 | 0.618 | 0.221 | 0.227 | 0.187 | 0.401 | 0.411 | 0.425 | 0.976 | 0.179 | 0.411
7 | NCI-H1755 | 0.982 | 0.951 | 0.793 | 0.817 | 0.997 | 1.01 | 0.79 | 0.552 | 0.675 | 0.683 | 0.629 | 0.985 | 0.944 | 0.949 | 0.449 | 0.421 | 0.415 | 0.996 | 1.04 | 0.341
